Literature values as cited in US8455021B2, “Composition for prophylaxis or treatment of urinary system infection and method thereof” (priority 2006, dated 2013).

Columns and labels:
MMP-2 = conditions: Yu Cai et al., J pharm Pharmacol. 2003
MMP-9 = MMP-9 (Homo sapiens, UniProt P14780); conditions: Yu Cai et al., J pharm Pharmacol. 2003
Chain of MMP-9 (P14780 94-707, species assumed): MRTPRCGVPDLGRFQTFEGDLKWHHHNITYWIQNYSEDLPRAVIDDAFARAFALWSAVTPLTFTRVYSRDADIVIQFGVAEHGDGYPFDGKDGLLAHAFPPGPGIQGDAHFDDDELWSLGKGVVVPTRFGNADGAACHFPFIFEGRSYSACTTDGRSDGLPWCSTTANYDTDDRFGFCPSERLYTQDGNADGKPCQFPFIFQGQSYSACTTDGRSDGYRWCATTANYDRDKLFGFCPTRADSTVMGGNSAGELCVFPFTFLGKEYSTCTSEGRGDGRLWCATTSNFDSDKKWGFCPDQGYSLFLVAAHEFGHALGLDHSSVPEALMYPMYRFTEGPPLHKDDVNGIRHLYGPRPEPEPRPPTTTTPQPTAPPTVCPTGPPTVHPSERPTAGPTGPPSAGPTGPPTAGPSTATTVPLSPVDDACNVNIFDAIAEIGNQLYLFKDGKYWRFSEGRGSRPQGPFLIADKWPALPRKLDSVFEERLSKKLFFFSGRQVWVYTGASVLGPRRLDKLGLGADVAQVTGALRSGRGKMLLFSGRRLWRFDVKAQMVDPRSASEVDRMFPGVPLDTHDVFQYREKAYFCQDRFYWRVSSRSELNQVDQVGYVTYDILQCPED

Question: Which “activity of matrix metalloproteinase MMP-2” value (MMP-2) does the source give for `C[C@@H]1O[C@@H](O[C@H]2C(=O)c3c(O)cc(O)cc3O[C@@H]2c2ccc(O)c(O)c2)[C@H](O)[C@H](O)[C@H]1O` [astilbin] here?
Answer: inhibits the activity

Question: What about the “activity of matrix metalloproteinase MMP-9” value (MMP-9) of the same compound?
Answer: inhibits the activity
